This experiment concerns the target T1, Aurora B kinase (Homo sapiens, UniProt Q96GD4).
T1 construct: gene AURKB; 6×His-Aurora B/INCENP^(822–918); with INCENP^(822–918)
Briefly: in vitro […] kinase assay with recombinant complex (histone H3.[…] and MBP substrates); confirmed by IP kinase assay from HeLa lysates. Format: biochemical.

Here are results for one molecule from PMC4833387 (PLoS ONE, 2016).

T1 sequence (Q96GD4 whole entry): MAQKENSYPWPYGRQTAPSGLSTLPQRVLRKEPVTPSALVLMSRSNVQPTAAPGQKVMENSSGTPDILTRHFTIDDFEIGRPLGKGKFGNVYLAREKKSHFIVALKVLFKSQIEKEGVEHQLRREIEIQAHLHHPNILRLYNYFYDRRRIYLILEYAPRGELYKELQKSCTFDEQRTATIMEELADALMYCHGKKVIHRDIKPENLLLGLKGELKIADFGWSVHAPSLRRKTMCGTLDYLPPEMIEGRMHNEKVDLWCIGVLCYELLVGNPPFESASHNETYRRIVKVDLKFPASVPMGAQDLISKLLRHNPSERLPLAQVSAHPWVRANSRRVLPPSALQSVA
T1 sequence (Q9NQS7 822-918 partner): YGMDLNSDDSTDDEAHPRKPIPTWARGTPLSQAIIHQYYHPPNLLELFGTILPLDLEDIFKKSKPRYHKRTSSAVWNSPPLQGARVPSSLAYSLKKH

On to `CC(=O)c1cnc2ccc(-c3cc(Cl)c(O)c(Cl)c3)nc2c1N[C@H]1CC[C@H](CN(C)C)CC1` [OTSSP167], for which the IC50 is approximately 25 nM.

For orientation: IC50 means the concentration that inhibits the measured activity by half.
